# Measured values published in patent publication US20040242587A1, “Pyrrolo[1,2-b]pyridazine compounds” (Pfizer Inc, priority 2003, published 2004).
row,melting point,Structure (SMILES)
1,105 to 110 °C,"Cc1cc(N[C@@H]2CN(C(=O)OCc3ccccc3)C[C@@H]2O)c2cc(C)c(-c3ccc(Cl)cc3Cl)n2n1 [Example 1, Benzyl (3R,4S)-3-{[7-(2,4-dichlorophenyl)-2.6-dimethylpyrrolo[1,2-b]pyridazin-4-yl]amino}-4-hydroxypvrrolidine-1-carboxylate]"
2,193.2 to 196.4 °C,"Cc1cc(N2CCC3(CC2)OCCO3)c2cc(C)c(-c3ccc(Cl)cc3Cl)n2n1 [Example 8, 8-[7-(2,4-Dichlorophenyl)-2,6-dimethylpyrrolo[1,2-b]pyridazin-4-yl]-1,4-dioxa-8-azaspiro[4,5]decane]"
3,169.7 to 171.3 °C,"Cc1cc(N2CCC(=O)CC2)c2cc(C)c(-c3ccc(Cl)cc3Cl)n2n1 [Example 9, 1-[7-(2,4-Dichlorophenyl)-2,6-dimethylpyrrolo[1,2-b]pyridazin-4-yl]piperidin-4-one]"
4,> 212 °C (dec.),"Cc1cc(N2CC=C(C(N)=O)CC2)c2cc(C)c(-c3ccc(Cl)cc3Cl)n2n1 [Example 11, 1-[7-(2,4-Dichlorophenyl)-2,6-dimethylpyrrolo[1,2-b]pyridazin-4-yl]-1,2,3,6-tetrahydropyridine-4-carboxamide]"
